Source: PMC5402304, “Oxoaporphine Metal Complexes (Co^II, Ni^II, Zn^II) with High Antitumor Activity by Inducing Mitochondria-Mediated Apoptosis and S-phase Arrest in HepG2” (Scientific Reports, 2017)

Tests used:
cleaved PARP = experiment: Western blot of cleaved PARP in HepG2 cells; format: cell-based, human; details: 24 h
Protocol: During the caspases-activated apoptotic cascades, mitochondrial apoptotic genes Apaf-1, PARP play an important role. The expressions of Apaf-1, pro-PARP and cleaved PARP in HepG2 cells treated with 3 were carried out by Western blotting. […] The expression of Apaf-1 protein was further confirmed by RT-PCR (Fig. 13C) that the up-regulation of Apaf-1 was also observed. PARP was considered to be an important indicator of cell apoptosis, and the cleaved PARP could cause cellular inactivation and prevent DNA repair.
After incubated with 1–3 (1.0 μM) for 24 h, HepG2 cells were harvested and lysed in 150 μL of lysed buffer (149 μL RIPA and 1 μL PMSF), and then placed on ice for 15 min. The total proteins were extracted by centrifuging the cell sample at 10000 rpm at 4 °C for 10 min. Then about 50 μg of purified proteins were mixed with equal volume of electrophoresis sample buffer, and the mixture was boiled for 10 min. Meanwhile the equal protein content from the control cells was prepared in the same way. The cell sample (10 μL) was loaded onto 10% SDS-PAGE gels and then transferred onto a microporous polyvinylidene difluoride (PVDF) membrane. The membrane was blocked with 5% BSA in TBST buffer for more than 2 h. […] The immunoreactive signals were detected using an enhanced chemo-luminance kit (Pierce ECL Western Blotting Substrate) following the procedures given in the user manual.

HepG2 xenograft = HepG2 xenograft nude mice model, tumor growth inhibition; format: in vivo, BALB/c nude mice
Protocol: BALB/c nude mice (male, 17–20 g, 5–6 weeks old) were supplied by Guangxi Medical University Laboratory Animal Centre (Guangxi, China, approval no. SCXK 2014–0002 and SYXK 2014–0003). All of the experimental procedures were carried out according to the NIH Guidelines for the Care and Use of Laboratory Animals. Animal experiments were approved by the Animal Care and Use Committee of Guangxi Medical University. Animal were housed at IVC system (individual ventilated caging) with conditions of constant photoperiod (12 h light/12 h dark at 25−28 °C and 45−65% humidity). The xenograft tumor model was established in the same way as we reported before[30]. The maximum solubility of 3 in DMSO/saline solvent (v/v, 5/100) with administration volume 0.8 mL/20 g was used as the high dose (6.0 mg/kg) group (n = 6). Meanwhile low dose group mice got 3.0 mg/kg, intraperitoneal injection every day, and the control group received corresponding solvent. The positive control group was administered with cisplatin at 2.0 mg/kg every two days by intraperitoneal injection (cisplatin dissolved in saline).
The tumor volumes and body weight were measured every 3 days, and tumor size was calculated as volume = (w^2l)/2, where w is the width and l is the length in mm of tumor[70]. On day 21, the mice were sacrificed, and the tumor tissue was dissected out and weighted. The in vivo antitumor activity is evaluated by two indicators[71][72]: the tumor relative increment rate (T/C = TRTV/CRTV × 100%) and tumor weight inhibition rate [IR = (Wc − Wt)/Wc × 100%,], where TRTV and CRTV were the RTV of treated group and control group, respectively (RTV: relative tumor volume, RTV = Vt /V0); Wt and Wc are the average tumor weight of complex-treated and vehicle controlled group, respectively.

HepG2 = experiment: MTT cytotoxicity assay, HepG2; format: cell-based, human
Protocol: The in vitro cytotoxicity of OD, 1–3 and the corresponding metal salts were determined by MTT assay towards a panel of human tumor cells including HepG2, T-24, BEL-7404, MGC80-3, SK-OV-3/DDP and normal HL-7702 cells. As the positive control, cisplatin was dissolved at a concentration of 1 mM in 0.154 M NaCl[32].
The human tumor cell lines (BEL-7404, HepG2, MGC80–3, T-24, SK-OV-3/DDP and HeLa cells) and the human normal liver cell line HL-7702 were obtained from Shanghai Cell Bank in Chinese Academy of Sciences. Cells were cultured in Dulbecco’s modified Eagle’s medium (DMEM) or RPMI-1640 medium, which supplemented with 10% fetal bovine serum (FBS) and 100 U/mL penicillin and streptomycin. Cells were cultured at 37 °C in a humidified atmosphere with 5% CO2/95% air. Tested compounds (2.0 mM) were prepared as DMSO stock solution before they were diluted to working concentrations by PBS buffer (containing 0.5% DMSO), while cisplatin dissolved in 0.9% sodium chloride solution was used as positive controls.
Cells in their logarithmic phase were seeded in 96-well plates with 5.5 × 10^3/180 μL per well for 24 h. Then 20 μL of compounds at various concentrations were added to each well to achieve final concentrations of 1.25, 2.5, 5.0, 10.0, and 20.0 μM. All the cells were incubated with test compounds for another 48 h before MTT assay. Control wells contained media with 0.5% DMSO. After 48 h of cultivation, 10 μL of MTT (5 mg/mL in PBS) was added to each well, and cells were incubated at 37 °C for 6 h. The contents in the wells were pipetted out carefully, and the formazan crystals formed were dissolved in 100 μL of DMSO, and the absorbance was measured by enzyme labeling instrument with 490 nm/630 nm double wavelength measurement. The IC50 value was defined as a drug concentration killing 50% cells in comparison with untreated controls, which was calculated by the Bliss method (n = 5). All tests were repeated in at least three independent trials.

[1] = Body weight of mice in the HepG2 xenograft model; format: in vivo, BALB/c nude mice; details: 3.0 and 6.0 mg/kg ip daily, versus solvent control group
Protocol: To further evaluate the in vivo antitumor efficacy of these complexes, 3 was selected to inhibit tumor growth in a HepG2 xenografts model. The mice were randomized into control group, 3-treated groups and positive control group (n = 6). Once the tumor had grown to an average volume of about 100 mm^3, two group of nude mice were injected intraperitoneally (ip) of 3 at a high dose (6.0 mg/kg) and a low (3.0 mg/kg) dose daily for 20 days, respectively. Cisplatin was used as positive control injected at 2.0 mg/kg every two days, while control group received solvents only.
BALB/c nude mice (male, 17–20 g, 5–6 weeks old) were supplied by Guangxi Medical University Laboratory Animal Centre (Guangxi, China, approval no. SCXK 2014–0002 and SYXK 2014–0003). All of the experimental procedures were carried out according to the NIH Guidelines for the Care and Use of Laboratory Animals. Animal experiments were approved by the Animal Care and Use Committee of Guangxi Medical University. Animal were housed at IVC system (individual ventilated caging) with conditions of constant photoperiod (12 h light/12 h dark at 25−28 °C and 45−65% humidity). The xenograft tumor model was established in the same way as we reported before. […]
The tumor volumes and body weight were measured every 3 days, and tumor size was calculated as volume = (w^2l)/2, where w is the width and l is the length in mm of tumor[70]. […]

## [Zn(OD)2(H2O)2] (ClO4)2 [Complex 3]
Cleaved PARP
  increment of cleaved PARP: approximately 70 fold
HepG2 xenograft; 3.0 mg/kg ip daily for 20 days
  IR (tumor weight inhibition rate): 26.4%
  T/C (tumor relative increment rate): 75.49%
HepG2 xenograft; 6.0 mg/kg ip daily for 20 days
  IR (tumor weight inhibition rate): 32.8%
  T/C (tumor relative increment rate): 55.57%
HepG2; HepG2, 20 μmol/L, 48 h
  inhibitive ratio: 89.58±1.22%
HepG2; HepG2, 48 h, MTT
  IC50: 390 ± 30 nM
[1]
  in vivo toxic effect (loss in body weight): no significant loss in body weight
